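A five-concentration, 48-hour dose response in 96-well plates underlies each endpoint, interpolated linearly between surrounding concentrations. TGI: total growth inhibition.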
Experiments:
Experiment in all cases: NCI anticancer screen, dose series, 48 h
786-0 renal = test system: 786-0 renal
A498 renal = test system: A498 renal
A549 NSCLC = test system: A549 NSCLC
ACHN renal = test system: ACHN renal
CAKI-1 renal = test system: CAKI-1 renal
COLO 205 colon = test system: COLO 205 colon
DLD-1 colon = test system: DLD-1 colon
DMS 114 small cell lung = test system: DMS 114 small cell lung
DMS 273 small cell lung = test system: DMS 273 small cell lung
EKVX NSCLC = test system: EKVX NSCLC
HCT-116 colon = test system: HCT-116 colon
HCT-15 colon = test system: HCT-15 colon
HL-60(TB) leukemia = test system: HL-60(TB) leukemia
HOP-92 NSCLC = test system: HOP-92 NSCLC
HT29 colon = test system: HT29 colon
IGROV1 ovarian = test system: IGROV1 ovarian
K-562 leukemia = test system: K-562 leukemia
KM20L2 colon = test system: KM20L2 colon
LOX IMVI melanoma = test system: LOX IMVI melanoma
LXFL 529 NSCLC = test system: LXFL 529 NSCLC
M14 melanoma = test system: M14 melanoma
M19-MEL melanoma = test system: M19-MEL melanoma
MALME-3M melanoma = test system: MALME-3M melanoma
MOLT-4 leukemia = test system: MOLT-4 leukemia
NCI-H226 lung = test system: NCI-H226 lung
NCI-H23 lung = test system: NCI-H23 lung
NCI-H522 lung = test system: NCI-H522 lung
OVCAR-3 ovarian = test system: OVCAR-3 ovarian
OVCAR-4 ovarian = test system: OVCAR-4 ovarian
OVCAR-5 ovarian = test system: OVCAR-5 ovarian
OVCAR-8 ovarian = test system: OVCAR-8 ovarian
RPMI-8226 leukemia = test system: RPMI-8226 leukemia
RXF 393 renal = test system: RXF 393 renal
RXF-631 renal = test system: RXF-631 renal
SF-268 CNS = test system: SF-268 CNS
SF-295 CNS = test system: SF-295 CNS
SF-539 CNS = test system: SF-539 CNS
SK-MEL-2 melanoma = test system: SK-MEL-2 melanoma
SK-MEL-28 melanoma = test system: SK-MEL-28 melanoma
SK-MEL-5 melanoma = test system: SK-MEL-5 melanoma
SK-OV-3 ovarian = test system: SK-OV-3 ovarian
SN12C renal = test system: SN12C renal
SNB-19 CNS = test system: SNB-19 CNS
SNB-75 CNS = test system: SNB-75 CNS
SNB-78 CNS = test system: SNB-78 CNS
SW-620 colon = test system: SW-620 colon
TK-10 renal = test system: TK-10 renal
UACC-257 melanoma = test system: UACC-257 melanoma
UACC-62 melanoma = test system: UACC-62 melanoma
UO-31 renal = test system: UO-31 renal
XF 498 CNS = test system: XF 498 CNS
CCRF-CEM leukemia = test system: CCRF-CEM leukemia
HOP-62 NSCLC = test system: HOP-62 NSCLC
KM12 colon = test system: KM12 colon
NCI-H460 lung = test system: NCI-H460 lung
SR leukemia = test system: SR leukemia
U251 CNS = test system: U251 CNS

Measured: TGI

O=C(CC1(O)C(=O)Nc2ccccc21)c1ccc(Cl)cc1Cl (stereo not given)
not listed: CCRF-CEM leukemia | HOP-62 NSCLC | KM12 colon | NCI-H460 lung | SR leukemia | U251 CNS
> 100 µM: all other assays above

CNS(=O)(=O)NNS(=O)(=O)c1ccc(F)cc1
not listed: HOP-92 NSCLC | MALME-3M melanoma | OVCAR-5 ovarian | SK-MEL-28 melanoma | SK-OV-3 ovarian | SN12C renal | SNB-78 CNS | TK-10 renal
> 100 µM: all other assays above
